Entries after “also recorded” stand apart in the source; their conditions may differ.
Assays:
C. difficile = test: Antifungal (fluconazole) treatment before FMT in mice with di-colonisation of C. albicans and C. difficile; type: in vivo, mouse (C57BL/6); settings: recipient mice colonized with C. albicans; fluconazole 0.5 mg/mL in drinking water 4 days before stool infusion
Experimental: Mice was initially colonized with C. albicans (2×10^8 cfu per mouse) after 3 days of antibiotic cocktail treatment in the drinking water, followed by 4 days of fluconazole treatment supplemented in the drinking water (0.5 mg/mL, Sigma). Then the mice were subjected to C. difficile administration (10^7 spores per mice) through gavage after a consecutive 1.5-day antibiotic cocktail- and 1.5-day free water-drinking. Human stool infusion was performed 2 days later after C. difficile gavage. Both C. difficile load and C. albicans load were enumerated by cultivation on Day 0 before FMT and Day 1 after FMT.
Mouse stool were collected both before and after stool infusion. Fecal C. difficile and C. albicans burdens on day 0 before and day 1 after stool infusion were measured by cultivation. Samples were diluted in PBS and respectively plated on taurocholate cycloserine cefoxitin fructose agar (TCCFA) for quantification of C. difficile burden, on Sabouraud dextrose agar (SDA) for quantification of C. albicans load. Stool samples prior to C. albicans colonization from antibiotic-treated mice were plated on SDA to ensure that mice were C. albicans culture negative.

C. albicans = test: Enumeration of C. albicans in feces of mice by cultivation on SDA; type: in vivo, mouse (C57BL/6); settings: day 4 after administration of C. albicans, fluconazole in drinking water
Experimental: Mice was initially colonized with C. albicans (2×10^8 cfu per mouse) after 3 days of antibiotic cocktail treatment in the drinking water, followed by 4 days of fluconazole treatment supplemented in the drinking water (0.5 mg/mL, Sigma). […] Both C. difficile load and C. albicans load were enumerated by cultivation on Day 0 before FMT and Day 1 after FMT.
C. albicans (10231, purchased from ATCC, USA) was administered to mice (2×10^8 cfu per mouse) via gavage after 3-day antibiotic treatment or supplemented in donor stool slurry at the time of donor stool infusion.

gut mycobiota = test: Fungal ITS2 sequencing of fecal DNA (gut mycobiota diversity, richness, composition); type: in vivo, human
Experimental: (§1) Fecal DNA was isolated as described below. 100 mg fecal sample was pre-washed with 1 ml ddH2O and pelleted by centrifugation at 10,000×g for 1 minute. The fecal pellet was re-suspended in 800 μl TE buffer (pH 7.5), supplemented with 1.6 μl 2-Mercaptoethanol and 500 U lyticase (Sigma), and incubated at 37° C. for 60 min. The sample was then centrifuged at 10,000×g for 2 minutes and fecal DNA was subsequently extracted from the pellet using ZR Fecal DNA miniPrep kit (Zymo Research, Orange, CA) according to the protocol. Briefly, fecal pellet was added to the BashingBeadLysis Tube with 750 μl Lysis solution, and then processed at maximum speed for 10 minutes. The lysates were centrifuged at ≥10,000×g for 1 minute. The supernatant was transferred to a Zymo-Spin™ IV Spin Filter in a collection tube and centrifuged at 7,000×g for 1 minute. About 1,200 μl of fecal DNA binding buffer was added to the filtrate in the collection tube, followed by concentration and purification in a new filter tube. Finally, a total of 50 μl eluted DNA with a concentration at 20-100 ng/μl was prepared for each sample.
The final fecal DNA for fungal sequencing was amplified based upon ITS2 (Internal transcribed spacer 2) region using primers as below and PrimeSTAR HS DNA Polymerase kit (TaKaRa, Japan). The primer pairs are ITS2-F: 5′-[…]-3′, ITS2-R: 5′-[…]-3′ (SEQ ID NOs 1 and 2, respectively). ITS2 amplicons were generated with 38 cycles of 3-step PCR: 98° C. 10 s, 59° C. 10 s, and 72° C. 30 s. PCR samples were then sequenced on the Illumina MiSeq PE300 platform (2×300 bp, BGI, China), 151,524±97,694 (number±SD) clean sequences obtained on average (sequence statistics in Table 4).
Raw reads were filtered by SOAPnuke (v 1.5.3) (web site: soap.genomics.org.cn/) developed by BGI as follows: (i) adaptors removed, (ii) read removed if N base is more than 3% of the read, (iii) read removed if bases with quality low than 20 were more than 40% of read, (iv) all duplicates removed. Quality control and data analysis were further implemented in PIPITS (v 1.4.5) 31. Briefly, PIPITS_PREP prepares raw reads from Illumina MiSeq sequencers for ITS extraction; PIPITS_FUNITS extracts ITS2 from the reads; and PIPITS_PROCESS analyses the reads to produce operational taxonomic unit (OTU) abundance tables and the RDP taxonomic assignment table for downstream analysis. The quality trimmed and ITS2 extracted reads were aligned to fungi UNITE database exploiting RDP classifier 2.10 for taxonomic assignment to produce operational taxonomic unit (OTU) abundance table (based on sequence identity >97% identity) and phylotype abundance tables at different taxonomic levels, for downstream analysis.
The fungal OTU and phylptype abundance data were imported into R 3.2.3. Richness, diversity, and evenness calculation were performed using the estimated richness function of the phyloseq package. Spearman correlation and their significance were calculated using the cor and cor.test functions in R, respectively. […] Correlation plots were generated using the corrplot package in R. Heat maps were generated using the pheatmap package in R.
To compare differences in the configurations of fungal and bacterial microbiomes between CDI patients and healthy controls, between FMT responders and non-responders, between FMT treatment and vancomycin (STD) treatment, Lefse analyses were performed on the Huttenhower lab Galaxy server (web site: huttenhower.sph.harvard.edu/galaxy/) by importing the […] and bacterial relative abundance values and associated sample metadata, with FDR adjusted p value <0.05 considered significant and effect size calculated. […]

gut bacterial microbiota = test: Bacterial 16S rRNA sequencing of fecal DNA (bacterial microbiota diversity, richness); type: in vivo, human; settings: responders
Experimental: as §1
The final fecal DNA samples were subject to bacterial 16S rRNA V4 region amplification and sequenced on the Illumina MiSeq PE250 platform (2×250 bp, BGI, China), 132,081±65,429 (number±SD) sequences obtained on average (sequence statistics in Table 5). […]

[1] = test system: Clostridium difficile infection (CDI); test: Randomised controlled trial of FMT versus vancomycin (STD) in patients with CDI: treatment outcome; type: in vivo, human
Experimental: The current study was a sub-study from a randomised controlled trial (RCT) of FMT versus vancomycin (standard therapy, STD) for patients with CDI. Consecutive CDI subjects enrolled into this randomised controlled trial were invited to participate in a substudy of assessment of fecal microbiota. Patients were included if they had three or more loose or watery stools per day for at least two consecutive days or eight or more soft or loose stools in 48 hours and a positive stool test for C. difficile based on a two-step testing algorithm in our hospital, a positive GDH (Glutamate dehydrogenase) screening test followed by a positive polymerase chain reaction (PCR) test of C. difficile. A total of 31 subjects with CDI and 24 healthy household controls were recruited and stool samples at baseline were obtained for analyses of fungal and bacterial microbiomes. Among them, 24 CDI subjects consented to have stool samples collected serially after treatment for microbiome analysis. 16 CDI subjects were treated with FMT and 8 were treated with vancomycin, and they were followed up at baseline and at weeks 2, 4, 10 and 16 after treatment (FIG. 6). Subjects in the FMT group received 5 days of vancomycin followed by donor infused stool via nasojejunal route and those who had STD received oral vancomycin 500 mg orally four times per day for 10 days. A computer-generated randomization schedule was used to assign patients to the treatment sequences. All patients kept a stool diary and were questioned about stool frequency and consistency and medication use.
Treatment response was defined as an absence of diarrhea or persistent diarrhea that could be explained by other causes with a negative stool test for C. difficile toxin, while relapse was defined as diarrhea with a positive stool test for C. difficile toxin. […]
In subjects who received FMT, a nasoduodenal tube was inserted with radiology guidance. […] The tube was removed 30 minutes after the infusion, and patients were monitored for 2 hours. […]

Row | Compound | efficacy of FMT in clearing C. difficile infection after anti-fungal treatment (C. difficile) | C. albicans in feces by cultivation (C. albicans) | alterations in fungal richness and diversity during longitudinal follow-up (gut mycobiota; 8 CDI subjects treated with vancomycin) | CDI subjects with an increase in gut fungal richness after treatment (gut mycobiota; 11 out of 16 (FMT), 3 out of 8 (vancomycin)) [%] | CDI subjects with an increase in gut fungal diversity after treatment (gut mycobiota; 13 out of 16 (FMT), 3 out of 8 (vancomycin)) [%] | fungal genera enriched in treatment responders after treatment (LefSe) (gut mycobiota; all follow-up samples of treatment responders) | genus Candida in fungal composition after treatment (gut mycobiota; during follow-up across STD subjects) | relative abundance of fecal C. albicans after treatment (gut mycobiota; last follow-up vs baseline, vancomycin: STD responders) | change in bacterial diversity after treatment (gut bacterial microbiota) | subjects who developed recurrence of CDI (non-responders) ([1]; 16 subjects on FMT, 8 on vancomycin) | subjects cured of CDI / symptom-free with negative stool C. difficile toxin at last follow-up (responders) ([1]; 16 subjects on FMT, 8 on vancomycin, median follow-up of 16 weeks) | Recurrence at week ([1]; individual CDI subject with recurrence, listed as STD)
1 | OC(Cn1cncn1)(Cn1cncn1)c1ccc(F)cc1F [fluconazole] | restored the efficacy of FMT in clearing C. difficile infection | negative | – | – | – | – | – | – | – | – | – | –
2 | CN[C@H](CC(C)C)C(=O)N[C@H]1C(=O)N[C@@H](CC(N)=O)C(=O)N[C@H]2C(=O)N[C@H]3C(=O)N[C@H](C(=O)N[C@H](C(=O)O)c4cc(O)cc(O)c4-c4cc3ccc4O)[C@H](O)c3ccc(c(Cl)c3)Oc3cc2cc(c3O[C@@H]2O[C@H](CO)[C@@H](O)[C@H](O)[C@H]2O[C@H]2C[C@](C)(N)[C@H](O)[C@H](C)O2)Oc2ccc(cc2Cl)[C@H]1O [vancomycin] | – | – | inconsistent alterations | 37.5 | 37.5 | Candida, Talaromyces, Erythrobasidium, Periconia, Stemphylium, Ganoderma | marked expansion | decrease | significant increase | three | 5 of the 8 and Five of the eight | week 12; also recorded: week 7; also recorded: week 5
